The structures appear in SMILES notation.

The nature of the series: gradient 5% acetonitrile 3 min, to 50% in 2 min, to 85% in 15 min, held 3 min, 100 µL/min. To be noted: column: Zorbax Extend-C18 2.1 x 50 mm; eluents: water / acetonitrile, 0.1% formic acid. The method in brief: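 Pure standards were run in mixtures of ~100 molecules by HPLC coupled to a quadrupole time-of-flight mass spectrometer. The column was a Zorbax Extend-C18 (2.1 × 50 mm, 1.8 μm) at 100 μL/min, with water and acetonitrile each containing 0.1% formic acid, in positive and negative ionization mode. Dead and dwell volumes were 40 μL and 900 μL. Retention time was taken from computationally picked adduct peaks, each manually inspected, with data collected over 3 months.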
`Cn1cnc(S(=O)(=O)N2CCC(C(=O)Nc3cccc(Cl)c3)CC2)c1` yielded an RP-LC retention time of 753 s.

`COc1ccc2[nH]cc(CCNC(=O)c3cc(C)nc4c3c(=O)n(C)c(=O)n4C)c2c1`: the RP-LC retention time stood at 699 s.

On to `O=C(Nc1ccccc1)N1CCC(n2cnc3c(Cl)cccc3c2=O)CC1`, for which the RP-LC retention time stood at 784 s.

`CC(C)N1C(=O)C(C)(C(=O)NC2CCCCC2)Oc2cccnc21` (centres undefined) showed an RP-LC retention time of 1010 s.

In the case of `Cc1ccc(-c2nc(N)n(C(=O)C3CC3)n2)cc1C`, the RP-LC retention time was 962 s.

For the molecule `CC1CCc2[nH]nc(C(=O)N3CCCCC3)c2C1` (centres undefined), the RP-LC retention time came out at 757 s.

`CCN1CCN(CCCNC(=O)Cc2c(C(=O)O)c(C)cn2CC)CC1` returned an RP-LC retention time of 563 s.

`CN(C)S(=O)(=O)N1CCCC(c2nc(-c3cccnc3)no2)CCNC(=O)CC1` (centres undefined) came in with an RP-LC retention time of 641 s.

Regarding `Cc1c(Cl)cccc1NC(=O)CN1CCc2[nH]c3c(C)cc(F)cc3c(=O)c2C1`, the RP-LC retention time worked out at 662 s.

`COc1ccccc1-c1nn2c(-c3ccc4ccccc4n3)nnc2s1` came in with an RP-LC retention time of 1040 s.

The molecule `CCCNC(=O)C1CCN(c2cc(SCC(=O)Nc3ccc(OC)cc3)ncn2)CC1` registered an RP-LC retention time of 692 s.

Consider `Cc1ccc(S(=O)(=O)Nc2cccc(-c3cn4cccc(C)c4n3)c2)c(C)c1`, for which the RP-LC retention time turned out to be 703 s.

`NS(=O)(=O)c1ccc(NC(=O)Cc2csc3nc(-c4ccccc4)cn23)cc1` came in with an RP-LC retention time of 650 s.

Consider `CC12CC(NC(=O)N1c1cccc(C(=O)N3CCOCC3)c1)c1ccccc1O2` (centres undefined), for which the RP-LC retention time was 663 s.

In turn, `CN(C)c1ccc(-c2nc3cnccn3c2NC2CCCC2)cc1` had an RP-LC retention time of 764 s.

In turn, `CCC1CCCCN1C(=O)c1cnc2nc(C)ccc2c1Nc1ccc(OC)cc1C` (centres undefined) yielded an RP-LC retention time of 692 s.

`Cc1ccc2oc(-c3noc(C(=O)NCc4ccc(C)o4)n3)c(C)c2c1` displayed an RP-LC retention time of 1080 s.

For `O=C1CCCc2cc(S(=O)(=O)N3CCC(C(=O)Nc4ccc(F)cc4)CC3)ccc2N1`, the RP-LC retention time was 749 s.

Take `COc1ccccc1-c1csc(-c2nnn(-c3ccc(C)c(C)c3)c2N)n1`: the RP-LC retention time came to 1220 s.

As to `CCN1C(=O)CCc2cc(NS(=O)(=O)c3ccccc3Cl)ccc21`, the RP-LC retention time stood at 751 s.

The molecule `O=C(CN1CCN(Cc2ccc(F)cc2)C1=O)NCc1cccc(Cl)c1` gave an RP-LC retention time of 846 s.

`CCCN(Cc1ccc(F)cc1)Cc1cc(=O)n2cc(Cl)ccc2n1` showed an RP-LC retention time of 659 s.

As for `CC(C)Cn1c(=O)c2cc(C(=O)N(C)CC(=O)N3CCCCCC3)nn2c2ccccc21`, the RP-LC retention time was determined as 891 s.

With `Cn1c(C(=O)NCCCN2CCCCC2)cc2c(-c3cccs3)nn(-c3ccccc3)c21`, the RP-LC retention time was 746 s.

`O=C(Cn1c(=O)c2cccn2c2ccc(F)cc21)NCCc1ccco1` came in with an RP-LC retention time of 774 s.

Regarding `O=C(Nc1cccnc1)c1ccc(S(=O)(=O)NC2CC2)cc1`, the RP-LC retention time was found to be 552 s.

For the molecule `O=C(c1nc2ccccc2s1)N1CCC(COCc2ccccc2)CC1`, the RP-LC retention time was determined as 1150 s.

In turn, `O=C(NCc1ccc2c(c1)OCO2)C1COC2(CCCCC2)N1C(=O)c1cccc(F)c1` (centres undefined) returned an RP-LC retention time of 845 s.

`O=C(Cn1ncc2c(N3CCN(c4ccccn4)CC3)ncnc21)Nc1ccc(OC(F)(F)F)cc1` yielded an RP-LC retention time of 660 s.

As for `CCOc1ccccc1OCC(=O)c1ccc(O)cc1O`, the RP-LC retention time was 794 s.

In the case of `Cc1cccc(NC(=O)Cn2nnc(-c3ccccc3)n2)c1C`, the RP-LC retention time was 588 s.

The molecule `O=C(Nc1ccc2c(c1)OCCO2)c1ccc(-n2cc(CNC(=O)C3CC3)cn2)cc1` came in with an RP-LC retention time of 720 s.

In the case of `O=C(CNc1ccccc1)Nc1nc(-c2ccccc2)cs1`, the RP-LC retention time stood at 637 s.

With `CC(C)N1CCN(C(=O)c2ccc(CN3CCN(Cc4ccccc4)C(=O)C3=O)cc2)CC1`, the RP-LC retention time was 610 s.

As for `CCN(CC)S(=O)(=O)c1ccc2c(c1)cc(C(=O)NCCN(C)C)n2C`, the RP-LC retention time is 639 s.

`Cn1cnnc1SCCNC(=O)Cc1noc2ccccc12`: the RP-LC retention time is 591 s.

As for `CCOC(=O)[C@H]1[C@H]2C=C[C@]3(CN(c4ccccc4C)C(=O)[C@@H]13)O2`, the RP-LC retention time amounted to 717 s.

`Cc1cc(S(=O)(=O)N2C[C@@H](F)C[C@H]2C(=O)N2CCc3ccccc3C2)ccc1Cl` showed an RP-LC retention time of 1020 s.

In turn, `O=C1NCCCCCCN(C(=O)C2CCCCC2)[C@H]2C[C@H](C(=O)N3CCc4ccccc4C3)C[C@@H]12` showed an RP-LC retention time of 924 s.

`COc1ccc(OC)c(S(=O)(=O)N2[C@H]3CC[C@@H]2c2cnc(-c4ccccc4)nc2C3)c1`: the RP-LC retention time is 1020 s.

For the molecule `CCN1CCN(Cc2nc3cc(NC(=O)c4cccs4)ccc3n2C(C)C)CC1`, the RP-LC retention time came to 586 s.

For `COC(=O)Cn1c(COc2ccccc2)nc2ccccc21`, the RP-LC retention time turned out to be 706 s.

`COc1ccc2oc(-c3noc(C4CC(=O)N(c5ccccc5)C4)n3)c(C)c2c1` (centres undefined): the RP-LC retention time was found to be 1040 s.

`CCc1ccc(C(=O)N2CCN(c3cc(-c4ccc(C)cc4)ncn3)CC2)cc1`: the RP-LC retention time was found to be 731 s.

Regarding `CCCNC(=O)CN1C(=O)CCCc2cc(S(=O)(=O)N3CCCCCC3)ccc21`, the RP-LC retention time amounted to 803 s.

On to `Cc1sc(-c2nc(C(C)C)cs2)cc1S(=O)(=O)NCc1ccccc1`, for which the RP-LC retention time worked out at 1190 s.

For the molecule `O=C(Cc1csc2nc(-c3ccccc3)cn12)NCCc1ccc(Cl)cc1`, the RP-LC retention time turned out to be 806 s.

Regarding `CCc1ccc(C(=O)NCCc2nc3cccnc3n2C(C)C)cc1`, the RP-LC retention time amounted to 717 s.

For the molecule `CCNc1nc(NC)nc(-n2cnc(SC)n2)n1`, the RP-LC retention time came to 674 s.

`CCOC(=O)c1cc(S(=O)(=O)N2CCCC2C(=O)NC2CCCCCCC2)cn1C` (centres undefined): the RP-LC retention time is 1020 s.

In turn, `Nc1ccc2c(c1)N=[N+]([O-])c1cc(N)ccc1C2` gave an RP-LC retention time of 628 s.

On to `Cc1c(C(=O)NC2CC2)cnn1-c1cc(-c2nc(C(C)C)no2)ccn1`, for which the RP-LC retention time turned out to be 940 s.

Molecule `Cc1ccc(-c2ncc(C(=O)Nc3cc(C)ccc3F)c(-c3ccncc3)n2)cc1` gave an RP-LC retention time of 995 s.

For the molecule `Cc1cc(C)c(S(=O)(=O)N2CCCC2c2nc(-c3ccccc3)no2)cc1C` (centres undefined), the RP-LC retention time stood at 1260 s.

In turn, `O=C(NC1CCCCCCC1)C1CCCN(C(=O)Cc2cccc3ccccc23)C1` (centres undefined) displayed an RP-LC retention time of 1060 s.

Turning to `O=C(NCc1ccco1)c1ccc2ccnc(N3CCN(c4ccc(F)cc4)CC3)c2c1`, the RP-LC retention time was 782 s.

Molecule `Cc1ccc(Cn2c(N3CCCC(C(=O)NCc4ccc(F)cc4)C3)nc3ccsc3c2=O)cc1` (centres undefined) had an RP-LC retention time of 993 s.

Regarding `Cc1nc(-c2ccc(-c3noc(-c4cncc(Br)c4)n3)cc2)cs1`, the RP-LC retention time came out at 1250 s.

`Cc1nc(-c2csc(S(=O)(=O)N3CCC(C(=O)NCc4ccc5c(c4)OCO5)CC3)c2)no1` registered an RP-LC retention time of 832 s.

The record behind these values is the METLIN SMRT retention time set (Domingo-Almenara et al. 2019).
